Here are results for 7 molecules from patent US20230183656A1, “METHODS AND COMPOSITIONS FOR PURIFYING ADENO ASSOCIATED VIRUS PARTICLES OR ADENOVIRUSES” (Merck Patent GmbH, priority 2020, published 2023).

The subject of one data set is AAV9. In words: AAV9 release after cell lysis (titers as in Example 1). In kind it is cell-based. Particulars: with NaCl, FIG. 5. The procedure:
(§1) An AAV2 suspension upstream process is performed including a cell lysis step using various single reagents, like Triton X-100 (T100) or TDAO at various concentrations or 0.5 M NaCl, all at 37° C. The samples were centrifuged at ~13000 g for 5 min at different time points post lysis, and supernatants were removed and stored at -70° C. for assays. Physical titers were measured by enzyme-linked immunosorbent assay (ELISA) using an AAV2 Titration ELISA kit (Progen) following manufacturer’s protocol, genome titers were measured by quantitative PCR (qPCR) targeting a specific sequence within the transfer vector. All reagents and assay protocols are from MilliporeSigma unless otherwise specified. Among all the conditions tested, 0.5 M NaCl was the only one capable of releasing significant amounts of AAV2 at physical titer of e10 vp/mL and genome titer of e9 gc/mL levels (FIG. 1). Moreover, time-dependent effects from 30 min to 90 min post lysis for all 3 single reagents, and concentration-dependent effects from 0.5% to 1% for both single detergents have been observed (FIG. 1).
An AAV9 suspension upstream process is performed as in Example 1 but using both single reagents and double reagents combined with NaCl.

For the next data set, the system named is AAV2. In words: AAV2 release after cell lysis (physical titer by ELISA, genome titer by qPCR). In kind it is cell-based. The conditions noted are these: for increase of AAV2 dissociation by addition to 0.5 M NaCl: 1% detergent added to 0.5 M NaCl, FIG. 2; for AAV2 viral titers after cell lysis: 90 min, 37° C., 0.5% Triton X-100, 0.5 M NaCl, or 0.5 M sodium chloride and 1% TDAO, FIG. 1 and 2. As to the method:
as §1
The same process is performed as in Example 1 but with NaCl combined with different detergents.
To investigate the optimal concentration of TDAO in combination with 0.5 M NaCl, an AAV2 dissociation test using 0 to 4% of TDAO and including an additional lysis time of 60 min was performed. […] Furthermore, the best lysis time of 90 min was confirmed as before based on genome titers. When calculating % full viral particles (vp) as the ratio of genome titer to physical titer, it was noted that 2% TDAO also facilitated more release of full viral particles over time with ~100% full VP at 90 min post lysis due to unknown mechanisms (FIG. 4).
On the technique in general: In an ELISA, binding on a coated surface is turned into a signal by an enzyme label.

For data set [1] the following is noted: cited from earlier work.
For the next data set, the system named is HEK293T-derived cells. The data set is described as follows: Turbidity post lysis and % cell lysis (ViCell XR) in 3L Mobius bioreactor. The format is cell-based, human. Particulars: AAV2, 3L Mobius at 72 hr PT; NaCl at 0.5 M; lysed cells to total cells before lysis. As to the method:
Cell lysis performed according to the general procedure of Example 1 was performed with different reagents and compared in terms of turbidity reduction and lysis efficiency.
Each turbidity in Table 2 is an average of 1-3 bioreactors x 2 measurements. PT = post transfection. […] Cell counts were taken by ViCell XR before lysis and at 30 min post lysis, and % cell lysis was calculated as a ratio of lysed cells to total cells before lysis.

With `CCCCCCCCCCCCCC[N+](C)(C)[O-]` [TDAO, N,N-Dimethyltertra decylamine N-oxide], the “AAV9 dissociation, double reagents with 2% TDAO compared to 1% TDAO” value in the data set with AAV9 is on record as “no benefits”. Besides, the “increase of AAV2 dissociation by addition of TDAO to 0.5 M NaCl” value in the data set on AAV2 (0 to 4% of TDAO, genome titers, FIG. 3) was 3-5 fold. Besides, the “increase of AAV2 dissociation by addition to 0.5 M NaCl” value with AAV2 is recorded as 3-9 fold. The “% full viral particles (ratio of genome titer to physical titer)” value in the data set on AAV2 (2% TDAO with 0.5 M NaCl, 90 min post lysis, FIG. 4) is given as ~ 100%. For the same molecule, in data set [1], the “biodegradation in 28 days” value is 88%. Turning to `CCCCCCCCCCCC[N+](C)(C)[O-]` [LDAO, N,N-Dimethyldode cylamine N-oxide], in data set [1], the “biodegradation in 28 days” value is listed as 95%.

As to `[Cl-].[Na+]` [NaCl, sodium chloride, reference compound], the “% cell lysis after 30 min” value with HEK293T-derived cells is listed as 80%. Besides, the “AAV2 viral titers after cell lysis” value in the data set with AAV2 is “significantly reduced viral titers”. On to `CCCCCCCCCCCCCCCC[N+](C)(C)[O-]` [N,N-Dimethylhexa decylamine N-oxide], for which the “biodegradation in 28 days” value in data set [1] is on record as <88%. In the case of Triton X-100 [reference compound], in the data set on AAV2, the “increase of AAV2 dissociation by addition to 0.5 M NaCl” value is listed as “not” and the “AAV2 viral titers after cell lysis” value is “significantly reduced viral titers”. Consider `CCCCCCCCCC[N+](C)(C)[O-]` [N,N-Dimethyldecyl amine N-oxide], for which the “biodegradation in 28 days” value in data set [1] was 97%.

On to `CCCCCCCC[N+](C)(C)[O-]` [N,N-Dimethyloctyl amine N-oxide], for which the “biodegradation in 28 days” value in data set [1] is reported as 100%.
